In patent US12679836B2, “4H-pyrrolo[3,2-c]pyridin-4-one compounds” (Bayer Aktiengesellschaft, priority 2019, dated 2026):
“And” between values parts separate entries of the source, which are not always exact repeats. Equal entries are not always repeated.

Tests used:
[1] = biological target: T1, EGFR with insertion of SVD between D770 and N771 (EGFR ins SVD) (Homo sapiens, UniProt P00533, DUP768-770); test: Exon20-Mutant-EGFR(D770_N771insSVD) kinase assay (TR-FRET); assay type: biochemical; conditions: 2 mM ATP, several values per example where printed
T1 construct: made in house; host or cells: Sf9 insect cells (baculovirus)
T1 sequence (P00533 with tags, fused parts or gaps DUP768-770): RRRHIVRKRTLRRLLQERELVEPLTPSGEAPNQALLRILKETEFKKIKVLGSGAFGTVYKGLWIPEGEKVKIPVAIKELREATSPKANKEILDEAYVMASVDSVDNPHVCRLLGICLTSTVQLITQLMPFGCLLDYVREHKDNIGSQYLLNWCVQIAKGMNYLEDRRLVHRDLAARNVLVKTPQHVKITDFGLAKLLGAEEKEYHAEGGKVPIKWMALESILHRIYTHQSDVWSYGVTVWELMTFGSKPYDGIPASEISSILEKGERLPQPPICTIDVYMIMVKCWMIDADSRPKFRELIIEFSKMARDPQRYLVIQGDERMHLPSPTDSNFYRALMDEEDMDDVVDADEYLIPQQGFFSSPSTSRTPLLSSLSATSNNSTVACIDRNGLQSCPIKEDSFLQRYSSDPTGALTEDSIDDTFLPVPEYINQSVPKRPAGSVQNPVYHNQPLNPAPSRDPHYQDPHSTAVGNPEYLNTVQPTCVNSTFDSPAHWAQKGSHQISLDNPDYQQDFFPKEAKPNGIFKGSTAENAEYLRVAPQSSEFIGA

PC9 cells (EGFRex19del) = test: PC9 proliferation assay (Cell Titer Glo); assay type: cell-based; conditions: Homo sapiens, PC-9, 72 h
Method: Cellular Data Description (PC9 Cells, EGFRex19del)
PC9 cells were purchased from ATCC. 400 PC9 cells per well were seeded in growth medium (DMEM, 10% FCS) in a 384-well plate (CORNING #3571). Seed reference plate for time zero determination on the same day. All plates were incubated overnight at 37° C. After 24 hours, test compound were added in 7-step dilution using HP Compound printer and incubated at 37° C. for 72 h. After 3 days, 30 μL/well CTG solution (Promega Cell Titer Glo solution; catalog # G755B and G756B) were added to each well, incubated for 30 minutes and the plate were read on PheraStar. Proliferation is calculated after subtracting time zero luminescence values from day 4 values and comparing to untreated wells. The IC50 values were determined using the four parameter fit.

Ba/F3-EGFR-WT cells = Ba/F3-EGFR-WT cells (Homo sapiens, UniProt P00533); test: Ba/F3 cell survival assay (Cell Titer-Glo), WT EGFR; assay type: cell-based; conditions: without IL-3, with 10 ng/mL EGF, 48 h; read-out: BA/F3 (wild type) IC50
Sequence of Ba/F3-EGFR-WT cells (P00533 whole entry, stated change not applied): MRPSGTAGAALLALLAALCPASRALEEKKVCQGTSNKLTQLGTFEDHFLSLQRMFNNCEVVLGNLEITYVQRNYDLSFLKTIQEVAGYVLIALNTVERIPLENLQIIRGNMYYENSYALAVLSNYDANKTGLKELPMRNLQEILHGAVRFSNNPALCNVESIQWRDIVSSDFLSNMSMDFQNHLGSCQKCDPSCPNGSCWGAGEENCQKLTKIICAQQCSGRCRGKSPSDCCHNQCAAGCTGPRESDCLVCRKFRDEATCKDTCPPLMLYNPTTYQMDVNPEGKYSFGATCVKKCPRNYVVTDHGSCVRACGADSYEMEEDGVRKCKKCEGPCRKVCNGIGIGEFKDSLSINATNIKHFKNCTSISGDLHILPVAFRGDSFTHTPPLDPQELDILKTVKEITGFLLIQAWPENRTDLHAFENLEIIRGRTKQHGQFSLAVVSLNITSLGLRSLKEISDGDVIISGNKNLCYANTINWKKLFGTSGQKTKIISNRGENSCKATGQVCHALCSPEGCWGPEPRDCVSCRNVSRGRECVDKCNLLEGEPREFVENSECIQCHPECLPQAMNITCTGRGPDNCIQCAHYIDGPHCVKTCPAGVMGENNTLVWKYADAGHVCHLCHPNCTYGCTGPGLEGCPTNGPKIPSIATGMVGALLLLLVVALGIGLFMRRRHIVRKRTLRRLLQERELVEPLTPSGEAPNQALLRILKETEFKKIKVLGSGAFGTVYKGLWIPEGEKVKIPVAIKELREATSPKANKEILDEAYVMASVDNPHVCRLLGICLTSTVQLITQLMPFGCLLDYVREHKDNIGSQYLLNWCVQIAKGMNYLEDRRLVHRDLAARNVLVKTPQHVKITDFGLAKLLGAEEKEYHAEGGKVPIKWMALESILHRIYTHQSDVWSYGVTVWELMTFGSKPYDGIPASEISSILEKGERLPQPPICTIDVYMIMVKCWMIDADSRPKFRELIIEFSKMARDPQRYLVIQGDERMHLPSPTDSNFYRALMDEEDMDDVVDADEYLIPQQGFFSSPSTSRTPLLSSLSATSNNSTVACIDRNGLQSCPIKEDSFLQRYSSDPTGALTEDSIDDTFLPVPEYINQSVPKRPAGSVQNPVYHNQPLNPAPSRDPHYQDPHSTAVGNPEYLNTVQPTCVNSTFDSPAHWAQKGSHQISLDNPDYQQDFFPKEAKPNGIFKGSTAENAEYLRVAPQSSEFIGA
Procedure, shortened: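 Ba/F3 cells stably expressing WT EGFR or EGFR-insSVD from retroviral transduction were grown without IL-3 on 10 ng/mL EGF. Cells were plated at 4000 cells/well, treated with compound for 48 h at 37° C, and viability was read by CellTiter-Glo luminescence.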

[2] = biological target: Ba/F3-EGFR-E746_A750del cells (Homo sapiens, UniProt P00533, DEL746-750, cells depend on it); test: Ba/F3 cell survival assay, EGFR E746_A750del; assay type: cell-based; conditions: without IL-3, without EGF, 48 h; read-out: BA/F3 (EGFR E746_A750del) IC50
Sequence of Ba/F3-EGFR-E746_A750del cells (P00533 with tags, fused parts or gaps DEL746-750): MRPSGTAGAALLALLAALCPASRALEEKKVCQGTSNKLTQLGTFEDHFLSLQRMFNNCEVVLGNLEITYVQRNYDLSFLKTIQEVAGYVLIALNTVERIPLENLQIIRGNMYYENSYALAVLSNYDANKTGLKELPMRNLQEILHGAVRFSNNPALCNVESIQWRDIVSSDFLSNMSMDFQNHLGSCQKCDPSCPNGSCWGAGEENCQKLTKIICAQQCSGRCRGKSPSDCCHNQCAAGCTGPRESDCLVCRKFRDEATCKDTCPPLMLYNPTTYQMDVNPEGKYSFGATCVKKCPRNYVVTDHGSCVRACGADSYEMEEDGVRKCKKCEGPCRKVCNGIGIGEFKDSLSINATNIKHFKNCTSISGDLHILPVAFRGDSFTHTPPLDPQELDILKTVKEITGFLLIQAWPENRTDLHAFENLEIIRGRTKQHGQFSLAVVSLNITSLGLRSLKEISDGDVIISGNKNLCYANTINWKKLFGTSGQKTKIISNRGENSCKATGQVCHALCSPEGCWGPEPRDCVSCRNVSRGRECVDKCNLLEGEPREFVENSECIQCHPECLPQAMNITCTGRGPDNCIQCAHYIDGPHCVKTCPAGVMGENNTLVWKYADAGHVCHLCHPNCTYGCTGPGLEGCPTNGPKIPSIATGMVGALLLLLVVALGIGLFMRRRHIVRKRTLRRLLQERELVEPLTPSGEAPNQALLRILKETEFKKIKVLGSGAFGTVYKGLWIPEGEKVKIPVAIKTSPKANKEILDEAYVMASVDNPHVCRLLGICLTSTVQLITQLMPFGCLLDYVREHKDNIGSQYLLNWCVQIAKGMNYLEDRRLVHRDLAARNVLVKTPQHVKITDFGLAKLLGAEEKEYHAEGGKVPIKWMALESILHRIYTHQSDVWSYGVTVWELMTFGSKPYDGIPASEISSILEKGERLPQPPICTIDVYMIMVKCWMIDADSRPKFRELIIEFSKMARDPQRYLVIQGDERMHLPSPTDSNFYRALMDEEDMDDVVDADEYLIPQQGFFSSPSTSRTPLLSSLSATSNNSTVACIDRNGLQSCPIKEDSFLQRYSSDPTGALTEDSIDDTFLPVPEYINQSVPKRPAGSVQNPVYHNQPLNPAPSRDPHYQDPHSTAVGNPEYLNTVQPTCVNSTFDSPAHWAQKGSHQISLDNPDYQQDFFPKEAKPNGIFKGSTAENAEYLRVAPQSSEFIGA
Method: 293T cells from ATCC were transfected with pBABEpuro expression constructs for mutant EGFR (V769_D770insASV, D770_N771insNPG, N771_P772insH, H773_V774insNPH, E746_A750del, L858R, D770_N771insSVD C797S, E746_A750del C797S, L858R C797S, L861Q) or mutant ERBB2 (A775_G776insYVMA) and pCL-Eco packaging vector using Fugene-6 transfection reagent from Promega. Plates were incubated at 37° C. for 48 h. Retrovirus was harvested by filtering the media supernatant through a 0.45 μm filter.
Ba/F3 cells purchased from DSMZ were grown in RPMI+10% FBS+10 ng/mL IL-3 and infected with filtered retroviral supernatant at a 1:2 dilution. Polybrene was added to a concentration of 8 μg/mL, plates were spun for 90 min, and incubated overnight at 37° C. 2 μg/mL puromycin was added to the infected cells 24 h after infection and cells were continually grown in the presence of puromycin and 10 ng/mL IL-3. Following stably expressing Ba/F3 cell lines were generated: Ba/F3-EGFR-V769_D770insASV, Ba/F3-EGFR-D770_N771insNPG, Ba/F3-EGFR-N771_P772insH, Ba/F3-EGFR-H773_V774insNPH, Ba/F3-EGFR-E746_A750del, Ba/F3-EGFR-L858R, Ba/F3-EGFR-D770_N771 insSVD C797S, Ba/F3-EGFR-E746_A750del C797S, Ba/F3-EGFR-L858R C797S, Ba/F3-EGFR L861Q and Ba/F3-ERBB2-A775_G776insYVMA (Ba/F3-vector-control).
For cell survival assays, Ba/F3 cells were grown to a density of 1-2 million cells per mL, spun down and resuspended in media without IL-3, and replated at a concentration 200,000-500,000 cells per mL. The cells ectopically expressing WT EGFR plated with 10 ng/mL Millipore Culture grade EGF and Ba/F3 cells containing mutant EGFR or Mutant ERBB2 were cultivated without EGF. The cells ectopically expressing pBABEpuro empty vector were plated with 10 ng/mL IL-3.
2 days later, cells were plated in 50 μL in a 384 well plate at a concentration of 4000 cells per well for cells assayed in the absence of IL-3 and 2000 cells per well for cells assayed in the presence of IL-3. 100 nL of compound was added to each well using a 100 nL pin head, and plates were incubated at 37° C. for 48 h.
Cell viability was measured by adding 20 μL of Cell Titer-Glo Luminescent Cell Viability Reagent diluted 1:3 in PBS. Plates were sealed with Perkin Elmer Top-Seal, inverted several times to mix, and immediately centrifuged at 1000 rpm for 2 min. Plates were incubated in low light conditions for 8-10 min and luminescence was measured.

Compound	mutEGFR (D770_N771insSVD) kinase assay IC50 [1]	IC50 (PC9 cells (EGFRex19del)) [nM]	GI50 (Ba/F3-EGFR-WT cells) [nM]	GI50 [2] [nM]
Cc1c(Cl)cccc1Nc1c(-c2ccncc2OC[C@H]2COCCO2)[nH]c2c1C(=O)NCC2 (single isomer, unassigned) [Example 50]	0.17 nM	6.82	361	1.1
Cc1c(Cl)cccc1Nc1c(-c2ccncc2OC[C@@H]2CN(C)CCO2)[nH]c2c1C(=O)NCC2 [Example 42, 3-(3-chloro-2-methylanilino)-2-(3-{[(2S)-4-methylmorpholin-2-yl]methoxy}pyridin-4-yl)-1,5,6,7-tetrahydro-4H-pyrrolo[3,2-c]pyridin-4-one]	0.155 nM	4.03	596	0.486
Cc1c(F)cccc1Nc1c(-c2ccncc2OCC2COCCO2)[nH]c2c1C(=O)NCC2 (single isomer, unassigned) [Example 48, 2-[3-(1,4-dioxan-2-ylmethoxy)-4-pyridyl]-3-(3-fluoro-2-methyl-anilino)-1,5,6,7-tetrahydropyrrolo[3,2-c]pyridin-4-one]	0.249 nM	3.4	379	1.43
COc1c(F)cccc1Nc1c(-c2ccncc2OCC2COCCO2)[nH]c2c1C(=O)NCC2 (single isomer, unassigned) [Example 5, 2-{3-[(1,4-dioxan-2-yl)methoxy]pyridin-4-yl}-3-(3-fluoro-2-methoxyanilino)-1,5,6,7-tetrahydro-4H-pyrrolo[3,2-c]pyridin-4-one]	<0.0725 nM and 0.0851 nM and 0.112 nM and 0.114 nM and 0.12 nM and 0.124 nM and 0.136 nM	–	262	0.739
Cc1c(Cl)cccc1Nc1c(-c2ccncc2OCC2COC(C)(C)CO2)[nH]c2c1C(=O)NCC2 (single isomer, unassigned) [Example 46, 3-(3-chloro-2-methyl-anilino)-2-[3-[(5,5-dimethyl-1,4-dioxan-2-yl)methoxy]-4-pyridyl]-1,5,6,7-tetrahydropyrrolo[3,2-c]pyridin-4-one]	0.433 nM	2.89	376	1.05

Now from value to molecule, other results behind:

mutEGFR (D770_N771insSVD) kinase assay IC50 [1]	IC50 (PC9 cells (EGFRex19del)) [nM]	Compound	GI50 (Ba/F3-EGFR-WT cells) [nM]	GI50 [2] [nM]
0.0872 nM	2.68	COc1c(F)cccc1Nc1c(-c2ccncc2OC[C@@H]2COCCN2C)[nH]c2c1C(=O)NCC2 [Example 20, 3-(3-fluoro-2-methoxyanilino)-2-(3-{[(3S)-4-methylmorpholin-3-yl]methoxy}pyridin-4-yl)-1,5,6,7-tetrahydro-4H-pyrrolo[3,2-c]pyridin-4-one]	313	–
0.127 nM	1.7	COc1c(Cl)cccc1Nc1c(-c2ccncc2OCC2COC(C)(C)CO2)[nH]c2c1C(=O)NCC2 (single isomer, unassigned) [Example 32, 3-(3-chloro-2-methoxyanilino)-2-{3-[(5,5-dimethyl-1,4-dioxan-2-yl)methoxy]pyridin-4-yl}-1,5,6,7-tetrahydro-4H-pyrrolo[3,2-c]pyridin-4-one]	–	2.89
–	0.673	COc1c(Cl)cccc1Nc1c(-c2ccncc2OC[C@@H]2COCCO2)[nH]c2c1C(=O)NCC2 (single isomer, unassigned) [Example 2]	292	< 0.158
0.126 nM	1.16	COc1c(Cl)cccc1Nc1c(-c2ccncc2OC[C@@H]2COCCN2C)[nH]c2c1C(=O)NCC2 [Example 21, 3-(3-chloro-2-methoxyanilino)-2-(3-{[(3S)-4-methylmorpholin-3-yl]methoxy}pyridin-4-yl)-1,5,6,7-tetrahydro-4H-pyrrolo[3,2-c]pyridin-4-one]	341	0.203
0.0799 nM	0.738	O=C1NCCc2[nH]c(-c3ccncc3OCC3COCCO3)c(Nc3cccc(Cl)c3Cl)c21 (single isomer, unassigned) [Example 8, 3-(2,3-dichloroanilino)-2-{3-[(1,4-dioxan-2-yl)methoxy]pyridin-4-yl}-1,5,6,7-tetrahydro-4H-pyrrolo[3,2-c]pyridin-4-one]	121	< 0.158
0.13 nM	2.12	COc1c(F)cccc1Nc1c(-c2ccncc2OCC2CN(C)CCO2)[nH]c2c1C(=O)NCC2 (single isomer, unassigned) [Example 14, 3-(3-fluoro-2-methoxyanilino)-2-{3-[(4-methylmorpholin-2-yl)methoxy]pyridin-4-yl}-1,5,6,7-tetrahydro-4H-pyrrolo[3,2-c]pyridin-4-one]	387	1.72
0.258 nM	1.74	CCc1c(Cl)cccc1Nc1c(-c2ccncc2OC[C@@H]2CN(C)CCO2)[nH]c2c1C(=O)NCC2 [Example 56, 3-(3-chloro-2-ethylanilino)-2-(3-{[(2S)-4-methylmorpholin-2-yl]methoxy}pyridin-4-yl)-1,5,6,7-tetrahydro-4H-pyrrolo[3,2-c]pyridin-4-one]	435	0.892
